Measured values published in patent US11224582B2, “Amino acid formulations for pancreatic viability” (Almeda Labs LLC, priority 2017, dated 2022).
“Also recorded” adds a separate entry of the source.

What was measured:
[1] = system: human beta-cell line (INS-1 832/13); experiment: Viability assay (PrestoBlue) of beta-cell line with single amino acids, double crosses and blends, Example 4; details: for effect of single amino acid on cell viability: 5-hour exposure in PBS; for effect on cell viability in single / double crosses: each amino acid at 1 mg/mL; for effect on cell viability at the highest doses / higher concentrations: single amino acids
Description: The human beta-cell line (INS-1 832/13) was expanded and maintained in RPMI-1640 growth media during expansion. Cells were grown and sustained in T75 cell culture flasks in an incubator at 37° C. and 5% CO2. Cells were passaged every 4th day via trypsinization. All cell media changes and passage work was done under a biosafety hood to ensure sterility of the cultures. Readings were obtained from the EnSpire Multimode Plate Reader (Perkin Elmer) with excitation of 560 nm and emission of 590 nm. To avoid plate edge effects the outer wells of each plate were used as blanks.
The INS-1 832/13 cell line, a derivation of the INS-1 cell line, was cultured in a growth medium consisting of RPMI-1640, along with 1 M HEPES buffer solution, 50×INS supplement (glutamine, Na-pyruvate, and B-mercaptoethanol), Antibiotic-Antimycotic (Gibco by LifeTechnologies), and Fetal Bovine Serum (HyClone). Cells were grown and sustained in a T75 cell culture flask. The cells were placed in a humidified incubator at 37° C. and 5% CO2. Due to the rapid growth of these cells, media was changed on every second day and passaged on every fourth day via trypsinization. When cells were confluent, they were exposed to amino acids as described below.
Pilot studies were undertaken with 6 single amino acids to determine the optimal conditions for cell testing, and the optimal time for exposure to the amino acids. […] Thus, a second trial was undertaken removing the media and placing cells in phosphate buffered saline at the time of the amino acid addition. […] Thus, the optimal conditions were determined to be a 5-hour exposure to the amino acids in PBS.
For the full study, cells plated in 384-well plates were exposed to individual amino acids at 10 full-log doses for 4 hours at 37° C. and 5% CO2. PrestoBlue (10%) was added to each well using the Hamilton Star Automated Fluid Handling System, and 1 hour later, for a total of 5 hours of exposure to the amino acids.
The plates were loaded into the EnSpire plate reader with excitation of 560 nm and emission of 590 nm excitation wavelengths.
Amino acids were added to a minimal buffer in full log concentrations starting at 1E−08 through 10 mg/mL. […] In the graph, the data have been normalized to cell viability in minimal buffer with no amino acids (100%).
Thus, a concentration of 1 mg/mL of a single amino acid is actually a 5 mg/mL of the full blend, because there are 5 different amino acids in each blend mixed in equal amounts.

rat islets [2] = experiment: Viability assay of rat islets (Yo-Pro / propidium iodide staining); format: cell-based; details: for Apoptotic Cells (%) / Live Cells (%) / Necrotic Cells (%): 1 g/L in RPMI, 11.6 mM glucose
Description: During the long-term (11 day) exposure, the islets were administered Amino Acid Formulation #1 or cysteine (at the same concentration) or culture media with no added amino acids.
Isolated rat islets were cultured in 100 cm^2 cell culture plates (untreated) in 20 ml of Roswell Park Memorial Institute (RPMI) media. […] Islets were removed from the dish and placed in 50 ml tubes. Islets were allowed time to settle to the bottom of the tube. The excess media was removed, and the islets were moved to microcentrifuge tubes, and DPBS solution was added to each tube. Cells were washed and fresh DPBS added.
Islets had media changed every 2 days with continuous exposure to Amino Acid Formulation #1, Cysteine alone, or media alone. Amino Acid Formulation #1 was prepared in the lab using amino acid capsules: […]
The working solutions contained 1 g/1 L concentration of Amino Acid Formulation #1 or cysteine alone prepared in RPMI.
25-50 islets were removed from the dishes and placed in 50 ml tubes. Islets were allowed time to settle to the bottom of the tube. The excess media was removed, and the islets were moved to microcentrifuge tubes, and DPBS solution was added to each tube. Cells were washed and fresh DPBS added. Propidium iodide and yo-pro were added to the tubes at a ratio of 1 μl reagent to 1 ml cells in DPBS.
Individual wells of 96-well plates were manually loaded with 10-15 islets each and checked visually under a microscope for consistency between wells. 30 minutes later, the plates were loaded into the BioTeck plate reader with readings for Yo-Pro and Propidium iodide with additional verification of islet tissue using dithizone staining.
Results were saved as images for later cellular analysis.
All islets identified in each condition were scored for the percent area of apoptotic and necrotic cells. The remaining percentage was calculated as live cells.

rat islets [3] = experiment: Islet survival (number of islets over time in culture); format: cell-based
Text: The objective of the experiment was to test the effect of long-term exposure of rat islets to Amino Acid Formulation #1 and compare those results to the currently-marketed amino acid, cysteine. A group without added amino acids was used as a control group. The comparison was based on the number of dead cells within islets over time, a count of the number of islets surviving over time, and the functional test of cellular metabolism after long-term exposure.
Rat islets were isolated from the pancreata of female animals under approved protocol and SOPs. […] The imaging capabilities of the Cytation plate reader was utilized for survival values.
All groups began with the same number of total islets per group.

rat islets [4] = experiment: Dithizone staining / light microscopy of rat islets; format: cell-based; details: day 1
Text: Islets were exposed to a single dose of Amino Acid Formulation #1 or cysteine for 11 days. FIG. 1 illustrates images of islets from each condition on day 1, stained with dithizone, which identifies islet cells via dark red color.
In the control media, the same was found.

[5] = Dissolution of test articles in RPMI working solutions; format: physicochemical; details: 1 g/1 L in RPMI, after 24 hours at 37° C.
Description: The working solutions contained 1 g/1 L concentration of Amino Acid Formulation #1 or cysteine alone prepared in RPMI. […] The working medium was kept at 37° C. in incubator with islets.

Q: With `C[C@@H](O)[C@H](N)C(=O)O` [threonine, L-Threonine] as the molecule, how does the “effect of single amino acid on cell viability” value (from here on “effect of single amino acid”) ([1]; 10 mg/mL) read?
A: slightly positive increases in viability

Q: Which results are given for `N[C@@H](Cc1c[nH]cn1)C(=O)O` [histidine, L-Histidine]?
A: effect on cell viability in single / double crosses [1]: very little effect on cell viability except when paired with asparagine or arginine; cells killed (fraction, words) ([1]; single amino acid, high doses (from 1 mg/mL)): approximately half; effect of single amino acid on cell viability ([1]; starting at 1 mg/mL): dramatic reductions in the viability

Q: For `NC(=O)C[C@H](N)C(=O)O` [asparagine, L-Asparagine], which “cells left in the dish that were alive” value ([1]; double cross: another 1 mg/mL of asparagine added to 1 mg/mL asparagine) is on record?
A: 18%

Q: And the “effect on cell viability in single / double crosses” value (from here on “effect … in single / double crosses”) [1]?
A: dramatic reduction in beta cell viability

Q: What about the “effect on cell viability at the highest doses / higher concentrations” value [1] of the same molecule?
A: negative effects on cell viability at the highest doses

Q: And the “effect of single amino acid” value ([1]; starting at 1 mg/mL)?
A: dramatic reductions in the viability

Q: With `N=C(N)NCCC[C@H](N)C(=O)O` [arginine, L-Arginine] as the molecule, how does the “effect … in single / double crosses” value [1] read?
A: decrease in cell viability when added to any other amino acid

Q: And the “effect on cell viability at the highest doses / higher concentrations” value [1]?
A: negative effects on cell viability at the highest doses

Q: What about the “effect of single amino acid” value ([1]; starting at 1 mg/mL) of the same molecule?
A: dramatic reductions in the viability

Q: For `N[C@@H](CS)C(=O)O` [Cysteine, L-Cysteine], which “route of cell death (apoptosis / necrosis)” value (rat islets [2]) is on record?
A: both apoptosis and necrosis

Q: What about the “cell death (Yo-Pro and Propidium Iodide staining)” value (rat islets [2]; 24 hours exposure, compared with control and Formulation #1) of the same molecule?
A: greater than the other 2

Q: And the “Apoptotic Cells (%)” value (rat islets [2]; Day 1)?
A: 18.2 + 21.3%

Q: And the “Live Cells (%)” value (rat islets [2]; Day 1)?
A: 58.4 ± 33.4 %

Q: What about the “Necrotic Cells (%)” value (rat islets [2]; Day 1) of the same molecule?
A: 23.4 ± 20.4%

Q: And the “Apoptotic Cells (%)” value (rat islets [2]; Day 4)?
A: 47.1 ± 35.9%

Q: What about the “Live Cells (%)” value (rat islets [2]; Day 4) of the same molecule?
A: 42.0 ± 39.8 %

Q: What about the “Necrotic Cells (%)” value (rat islets [2]; Day 4) of the same molecule?
A: 10.9 + 13.4%

Q: And the “viability compared with the other groups” value (rat islets [2]; days 1, 4 and 8)?
A: significantly lower viability than the other two groups

Q: What about the “islets found in the group” value (rat islets [3]; day 8) of the same molecule?
A: No islets could be identified; also recorded: no live islets could be found

Q: And the “islet survival time in culture” value (rat islets [3]; no islets survived past this time)?
A: ≤ 6 days

Q: What about the “number of islets as % of the Amino Acid Formulation #1 group” value (rat islets [3]; within 24 hours of exposure) of the same molecule?
A: 78%

Q: What about the “islets with core cell death” value (rat islets [4]) of the same molecule?
A: approximately 30%

Q: What about the “undissolved crystals in working solution” value [5] of the same molecule?
A: still had microscopic crystals that had not gone completely into solution

Q: And the “effect of single amino acid” value ([1]; 0.01 mg/mL and higher)?
A: positive impact on cell viability

Q: What about the “effect … in single / double crosses” value [1] of the same molecule?
A: most positive effect on cell health

Q: What about the “effect on cell viability at the highest doses / higher concentrations” value [1] of the same molecule?
A: improve viability at the higher concentrations tested

Q: With `N[C@@H](CO)C(=O)O` [serine, L-Serine] as the molecule, how does the “effect of single amino acid” value ([1]; 10 mg/mL) read?
A: slightly positive increases in viability
